The text below walks through data of ChEMBL document CHEMBL2440079, “Synthesis and in vitro evaluation of a novel radioligand for αvβ3 integrin receptor imaging: [18F]FPPA-c(RGDfK)” (Bioorg Med Chem Lett, 2013).

pIC50: −log10 of the molar value. Active and inactive are the calls of the source. No cut-off for these calls is given here.

In test [1] the target is T1, Integrin alpha-V/beta-3 (Homo sapiens, UniProt P05106+P06756). Kind of test: Activation of alphaVbeta3 integrin in HUVEC at 10 uM by flow cytometry. The format is protein-complex assay. A general note: A flow cytometer gives signals particle by particle.
The test system of a further test is HEK-293T. Kind of test: Selectivity ratio of IC50 for soluble truncated human recombinant 6His-tagged alpha5beta1 and integrins were expressed in HEK293T cells to IC50 for soluble truncated human recombinant Fc-tagged alphaVbeta3 and integrins. The format is cell-based.
For the next test, the target named is Integrin alpha-5/beta-1 (Homo sapiens, UniProt P05556+P08648). Kind of test: Binding affinity to soluble truncated human recombinant 6His-tagged alpha5beta1 and integrins were expressed in HEK293T cells after 2 hrs by competition ELISA-like assay. The format is cell-based, HEK-293T. A general note: In an ELISA, binding on a coated surface is turned into a signal by an enzyme label.

Test [2] has as its target T1, Integrin alpha-V/beta-3. Kind of test: Binding affinity to soluble truncated human recombinant Fc-tagged alphaVbeta3 and integrins were expressed in HEK293T cells after 2 hrs by competition ELISA-like assay. The format is cell-based, HEK-293T.

The pIC50 is −log10 of the IC50, conventionally taken in molar units.

In the case of `N=C(N)NCCC[C@@H]1NC(=O)[C@H](CCCCn2cc(CCC(=O)Nc3ccc(F)cc3)nn2)NC(=O)[C@@H](Cc2ccccc2)NC(=O)[C@H](CC(=O)O)NC(=O)CNC1=O`, the outcome on Integrin alpha-V/beta-3 [1] was Active. For the same molecule, the Ratio IC50 with HEK-293T came out at 300.
Turning to `NC(N)=NCCC[C@@H]1NC(=O)[C@H](CCCCn2cc(CCC(=O)Nc3ccc(F)cc3)nn2)NC(=O)[C@@H](Cc2ccccc2)NC(=O)[C@H](CC(=O)O)NC(=O)CNC1=O`, the pIC50 at Integrin alpha-5/beta-1 is 5.44; at Integrin alpha-V/beta-3 [2], 7.97.
